In publication PMC8587750, “Structural Optimization and Biological Activity of Pyrazole Derivatives: Virtual Computational Analysis, Recovery Assay and 3D Culture Model as Potential Predictive Tools of Effectiveness against Trypanosoma cruzi” (Molecules, 2021):
Read-outs that look alike come from different tables or passages of the source.

Columns and labels:
[1] = test system: trypomastigote forms of T. cruzi; assay: Phenotypic screening against T. cruzi trypomastigotes (Dm28c-Luc, luciferase viability, 24 h); assay type: cell-based, Trypanosoma cruzi; conditions: for IC50 / IC90: Trypanosoma cruzi, Dm28c-Luc, 24 h; for IC50: read-out: Trypanocidal Activity Trypomastigotes IC50; for IC90: read-out: Trypanocidal Activity Trypomastigotes IC90
From the text: (§1) T. cruzi Dm28c clone genetically modified to express luciferase, kindly provided by Dr. Cristina Henriques from Oswaldo Cruz Institute–Fiocruz, was used in the drug assays. Trypomastigotes were harvested from T. cruzi-infected Vero cultures supernatants at 4th days post-infection (dpi) and used in the phenotypic screening assay. For intracellular amastigotes assays, Vero cells (2D and 3D cultures) were infected at a ratio of 10:1 parasites/host cells.
The phenotypic compound screening was performed using transgenic T. cruzi parasites expressing the firefly luciferase (Dm28c-Luc). Trypomastigotes (1 × 10^6 parasites/well) were treated for 24 h at 37 °C with the pyrazole derivatives and Bz (0.04–100 μM), followed by incubation with luciferin substrate (300 µg/mL) to determine parasite viability through luciferase activity. The concentration that reduces the number of viable parasites by 50% (IC50) or 90% (IC90) was calculated by linear regression. The luminescent signal was read on a Glomax-Multi Detection plate reader (Promega Corporation, Madison, WI, EUA)). At least three independent assays were performed in duplicate.

[2] = test system: intracellular amastigotes of T. cruzi; assay: Activity against intracellular amastigotes in infected Vero cells (Dm28c-Luc, 72 h); assay type: cell-based, Trypanosoma cruzi; conditions: for IC50 / IC90: Trypanosoma cruzi; for IC50: Vero; for IC90: read-out: Trypanocidal Activity Intracellular Amastigotes IC90; for Intracellular Amastigotes SI: CC50 of Vero cells/IC50 of intracellular amastigote
From the text: as §1
The effect of the pyrazole derivatives against intracellular amastigotes was also evaluated after 72 h treatment (37 °C) with compound concentrations ranging from 0.04–100 µM [13]. Parasite viability, measured by luminescent signal, was determined after luciferin (300 µg/mL) addition. IC50 and IC90 values were calculated by linear regression. Selectivity index (SI) was calculated as the ratio of the CC50 to IC50 values. The non-toxic concentration of DMSO (less than 1% v/v) was used in all assays. A minimum of three independent assays was carried out in duplicate.

[3] = Cytotoxicity in vitro assay (ATP, CellTiter Glo, 72 h); assay type: cell-based; conditions: African green monkey, Vero cells
Protocol: Vero cells, obtained from the Rio de Janeiro Cell Bank (BCRJ code 0245), were cultured in RPMI-1640 supplemented with 10% fetal bovine serum (FBS) and 1 mM L-glutamine, as previously described. Vero cells were used for drug screening assays and to obtain trypomastigote forms of T. cruzi.
Vero cells were used as a cellular model to analyze the toxic effect of pyrazole derivatives, series 1(a–l), 2(a–l), 3(a–n), 4(a–c), and 5(a–c), and Benznidazole (Bz) on mammalian cells. Briefly, the cells, plated on 96-well white opaque microplate (1.5 × 10^4 cells/well), were treated for 72 h at 37 °C with a wide range concentration (500–1.95 µM) of the pyrazole derivatives. The cell viability was determined by measuring ATP levels using the CellTiter Glo Kit (Promega Corporation, Madison, WI, EUA) followed by reading the luminescent signal on the Glomax-Multi Detection plate reader (Promega Corporation, Madison, WI, EUA)). All treatments and controls were performed at a low concentration of DMSO (≤1%). The 50% cytotoxic concentration values (CC50; the concentration of the compound that reduces 50% of the cell viability) were estimated by linear regression analysis. Three independent assays were performed in duplicate.

[4] = 72 h, Vero cells infected with Dm28c-Luc, 72 h, read-out: Trypanocidal Activity Intracellular Amastigotes IC50
[5] = negative log of the IC50 value in molar, read-out: Intracellular Amastigotes pIC50 (converted)
[6] = Vero cells infected with Dm28c-Luc, 72 h

Structure (SMILES) | IC50 [1] [µM] | IC90 [1] [µM] | IC50 [2, 4] [µM] | IC50 [2, 5] [µM] | IC90 [2, 6] [µM] | CC50 at 72 h [3] [µM] | melting point [°C] | Intracellular Amastigotes SI [2] | Trypomastigotes SI ([1]; CC50 of Vero cells/IC50 of trypomastigote)
CC1CN=C(c2cnn(-c3ccc(Cl)c(Cl)c3)c2N)N1 (stereo not shown) [Compound 5c, 5-amino-1-(3,4-dichlorophenyl)-4-(-4(5)-methyl-4,5-dihydro-1H-imidazol-2-yl)-1H-pyrazole] | > 100 | > 100 | 34.3 ± 4.24 | 34.7 | > 100 | 343 ± 37 | 191 to 193 | – | –
c1ccc(-n2cc(C3=NCCN3)cn2)cc1 [Compound 3a, 4-(4,5-dihydro-1H-imidazol-2-yl)-1-phenyl-1H-pyrazole] | > 100 | – | 91.8 ± 2.03 | 93.3 | > 100 | > 500 | 149 to 150 | >5.44 | –
CC1CN=C(c2cnn(-c3cccc(Cl)c3)c2N)N1 (stereo not shown) [Compound 5a, 5-amino-1-(3-chlorophenyl)-4-(4-(5)-methyl-4,5-dihydro-1H-imidazol-2-yl)-1H-pyrazole] | > 100 | > 100 | > 100 | > 100 | > 100 | > 500 | 169 to 172 | – | –
NC(=O)c1cnn(-c2cc(Cl)cc(Cl)c2)c1N [Compound 2d, 5-amino-1-(3,5-dichlorophenyl)-1H-pyrazole-4-carboxamide] | – | – | – | > 70.8 | – | – | 184 to 186 | – | –
NC(=O)c1cnn(-c2ccc(Br)cc2)c1N [Compound 2i, 5-amino-1-(4-bromophenyl)-1H-pyrazole-4-carboxamide] | – | – | – | > 70.8 | – | – | 138 to 142 | – | –
Cc1nn(-c2cccc(Cl)c2)c(N)c1C1=NCCN1 [Compound 4a, 5-amino-1-(3-chlorophenyl)-3-methyl-4-(4,5-dihydro-1H-imidazol-2-yl)-1H-pyrazole] | > 100 | > 100 | > 100 | > 100 | > 100 | > 500 | 116 to 120 | – | –
NC(=O)c1cnn(-c2cc(Cl)cc(Cl)c2)c1 [Compound 1d, 1-(3,5-dichlorophenyl)-1H-pyrazole-4-carboxamide] | – | – | – | > 50.1 | – | – | 240 to 242 | – | –
NC(=O)c1cnn(-c2cccc(F)c2)c1 [Compound 1h, 1-(3-fluorophenyl)-1H-pyrazole-4-carboxamide] | – | – | – | > 50.1 | – | – | 206 to 208 | – | –
COc1ccc(-n2cc(C3=NCCN3)cn2)cc1 [Compound 3l, 4-(4,5-dihydro-1H-imidazol-2-yl)-1-(4-methoxyphenyl)-1H-pyrazole] | > 100 | – | 71.8 ± 2.71 | 72.4 | > 100 | > 500 | 196 to 197 | >7 | –
NC(=O)c1cnn(-c2ccc(Cl)c(Cl)c2)c1N [Compound 2e, 5-amino-1-(3,4-dichlorophenyl)-1H-pyrazole-4-carboxamide] | – | – | – | > 70.8 | – | – | 204 to 212 | – | –
NC(=O)c1cnn(-c2cccc(Cl)c2)c1 [Compound 1b, 1-(3-chlorophenyl)-1H-pyrazole-4-carboxamide] | – | – | – | > 50.1 | – | – | 202 to 204 | – | –
Cc1cc(Cl)ccc1-n1cc(C2=NCCN2)cn1 [Compound 3n, 1-(4-chloro-2-methylphenyl)-4-(4,5-dihydro-1H-imidazol-2-yl)-1H-pyrazole] | > 100 | – | 24.7 ± 3.42 | 24.5 | 85.7 ± 5.03 | 342 ± 30 | 174 to 176 | 13.86 | –
NC(=O)c1cnn(-c2cccc(Br)c2)c1 [Compound 1j, 1-(3-bromophenyl)-1H-pyrazole-4-carboxamide] | – | – | – | > 50.1 | – | – | 212 to 214 | – | –
NC(=O)c1cnn(-c2cccc(Cl)c2)c1N [Compound 2b, 5-amino-1-(3-chlorophenyl)-1H-pyrazole-4-carboxamide] | – | – | – | > 70.8 | – | – | 168 to 170 | – | –
NC(=O)c1cnn(-c2ccc(Cl)cc2)c1N [Compound 2f, 5-amino-1-(4-chlorophenyl)-1H-pyrazole-4-carboxamide] | – | – | – | > 70.8 | – | – | 196 to 200 | – | –
NC(=O)c1cnn(-c2cccc(Cl)c2Cl)c1 [Compound 1l, 1-(2,3-dichlorophenyl)-1H-pyrazole-4-carboxamide] | – | – | – | > 50.1 | – | – | 220 to 224 | – | –

Structure (SMILES) | IC50 [1] [µM] | IC90 [1] [µM] | IC50 [2, 4] [µM] | IC50 [2, 5] [µM] | IC90 [2, 6] [µM] | CC50 at 72 h [3] [µM] | melting point [°C] | Intracellular Amastigotes SI [2] | Trypomastigotes SI ([1]; CC50 of Vero cells/IC50 of trypomastigote)
NC(=O)c1cnn(-c2ccc(Cl)cc2Cl)c1N [Compound 2c, 5-amino-1-(2,4-dichlorophenyl)-1H-pyrazole-4-carboxamide] | – | – | – | > 70.8 | – | – | 212 to 214 | – | –
NC(=O)c1cnn(-c2cccc(F)c2)c1N [Compound 2h, 5-amino-1-(3-fluorophenyl)-1H-pyrazole-4-carboxamide] | – | – | – | > 70.8 | – | – | 178 to 182 | – | –
Clc1ccc(-n2cc(C3=NCCN3)cn2)cc1Cl [Compound 3e, 1-(3,4-dichlorophenyl)-4-(4,5-dihydro-1H-imidazol-2-yl)-1H-pyrazole] | 64.9 ± 2.85 | 93.74 ± 0.73 | 76.5 ± 8.79 | 75.9 | > 100 | 480 ± 21.7 | 185 to 186 | 6.26 | 7.39
Fc1ccc(-n2cc(C3=NCCN3)cn2)cc1 [Compound 3h, 4-(4,5-dihydro-1H-imidazol-2-yl)-1-(4-fluorophenyl)-1H-pyrazole] | > 100 | – | 64.5 ± 3.81 | 64.6 | > 100 | > 500 | 210 to 212 | – | –
NC(=O)c1cnn(-c2ccccc2)c1 [Compound 1a, 1-phenyl-1H-pyrazole-4-carboxamide] | – | – | – | > 50.1 | – | – | 224 to 225 | – | –
NC(=O)c1cnn(-c2cccc(Cl)c2Cl)c1N [Compound 2l, 5-amino-1-(2,3-dichlorophenyl)-1H-pyrazole-4-carboxamide] | – | – | – | > 70.8 | – | – | 160 to 164 | – | –
NC(=O)c1cnn(-c2ccc(Cl)cc2)c1 [Compound 1f, 1-(4-chlorophenyl)-1H-pyrazole-4-carboxamide] | – | – | – | > 50.1 | – | – | 234 to 236 | – | –
NC(=O)c1cnn(-c2ccc(F)cc2)c1N [Compound 2g, 5-amino-1-(4-fluorophenyl)-1H-pyrazole-4-carboxamide] | – | – | – | > 70.8 | – | – | 232 to 234 | – | –
NC(=O)c1cnn(-c2ccc(Br)cc2)c1 [Compound 1i, 1-(4-bromophenyl)-1H-pyrazole-4-carboxamide] | – | – | – | > 50.1 | – | – | 242 to 244 | – | –
NC(=O)c1cnn(-c2cccc(Br)c2)c1N [Compound 2j, 5-amino-1-(3-bromophenyl)-1H-pyrazole-4-carboxamide] | – | – | – | > 70.8 | – | – | 138 to 142 | – | –
NC(=O)c1cnn(-c2ccc(Cl)c(Cl)c2)c1 [Compound 1e, 1-(3,4-dichlorophenyl)-1H-pyrazole-4-carboxamide] | – | – | – | > 50.1 | – | – | 190 to 192 | – | –
COc1ccc(-n2cc(C(N)=O)cn2)cc1 [Compound 1k, 1-(4-methoxyphenyl)-1H-pyrazole-4-carboxamide] | – | – | – | > 50.1 | – | – | 220 to 222 | – | –
NC(=O)c1cnn(-c2ccc(Cl)cc2Cl)c1 [Compound 1c, 1-(2,4-dichlorophenyl)-1H-pyrazole-4-carboxamide] | – | – | – | > 50.1 | – | – | 184 to 186 | – | –
NC(=O)c1cnn(-c2ccc(F)cc2)c1 [Compound 1g, 1-(4-fluorophenyl)-1H-pyrazole-4-carboxamide] | – | – | – | > 50.1 | – | – | 244 to 246 | – | –
COc1ccc(-n2ncc(C(N)=O)c2N)cc1 [Compound 2k, 5-amino-1-(4-methoxyphenyl)-1H-pyrazole-4-carboxamide] | – | – | – | > 70.8 | – | – | 214 to 218 | – | –
